From article PMC7450057, “Enhancing intracellular accumulation and target engagement of PROTACs with reversible covalent chemistry” (Nature Communications, 2020)
Where “and” joins values, the source holds several entries; their conditions need not be identical. Equal values may be shown once.

Experiments:
full-length BTK protein = biological target: T1, full-length BTK protein (Homo sapiens, UniProt Q06187); test: BTK binding assay (Kd, Eurofins DiscoverX)
T1 construct: Kd was measured using the full-length BTK protein by Eurofins DiscoverX; T7 phage fusion or DNA tag for qPCR (generic vendor protocol); purchased Eurofins DiscoverX
Description: The dissociation equilibrium constant Kd was measured using the full-length BTK protein by Eurofins DiscoverX according to the following protocol: kinase-tagged T7 phage strains were prepared in an E. coli host derived from the BL21 strain. E. coli were grown to log-phase and infected with T7 phage and incubated with shaking at 32 °C until lysis. The lysates were centrifuged and filtered to remove cell debris. The remaining kinases were produced in HEK-293 cells and subsequently tagged with DNA for qPCR detection. […] The liganded beads were blocked with excess biotin and washed with blocking buffer (SeaBlock (Pierce), 1% BSA, 0.05% Tween 20, 1 mM DTT) to remove unbound ligand and to reduce non-specific binding. […] Test compounds were prepared as 111X stocks in 100% DMSO. […] The compounds were then diluted directly into the assays such that the final concentration of DMSO was 0.9%. All reactions performed in polypropylene 384-well plate. Each was a final volume of 0.02 mL. […] The kinase concentration in the eluates was measured by qPCR. For kinase-binding constant determination, an 11-point 3-fold serial dilution of each test compound was prepared in 100% DMSO at 100x final test concentration and subsequently diluted to 1x in the assay (final DMSO concentration = 1%). […] Binding constants (Kd values) were calculated with a standard dose-response curve using the Hill equation: Response=Background+Signal−Background/1+KdHillSlope/Dose^HillSlope
The Hill Slope was set to −1. Curves were fitted using a non-linear least square fit with the Levenberg-Marquardt algorithm.

[1] = biological target: truncated Cereblon protein (Homo sapiens, UniProt Q96SW2); test: CRBN binding assay (fluorescence quenching); settings: for Fluorescence Intensity: Supplementary Figure 11, replicates
Description: The Kd values of compounds to CRBN were measured based on fluorescence quenching after compounds binding to CRBN. […] All the compounds were dissolved in DMSO (10 mM) as stock solutions. The final drug concentration is 100 nM. […] Fluorescence intensity values for control wells (assay buffer only) were subtracted from each data point prior to analysis. The Kd was calculated using GraphPad Prism with the following equation curve fit. I=I0−If×Kd/P0+Kd+If

MOLM-14 cells = test: Quantification of intracellular drug concentration by LC-MS; assay type: in vitro ADME; settings: for Intracellular concentration: Concentration of compound, AVE / intracellular amount, AVE / intracellular amount / Intracellular concentration: Concentration of compound: 200 nM; for Intracellular concentration: Concentration of compound, AVE / intracellular amount, AVE: average of 3 replicates; for intracellular amount: initial amount 0.4000 nmol; for Intracellular concentration: Concentration of compound: sample volume 400 µL
Description: MOLM-14 cells were seeded at a density of 0.5 × 10^6 per mL in 2 mL medium. […] The samples were immediately centrifuged at 12,000 × g for 15 min at 4 °C, then removing the supernatant. In all, 400 μL of NP-40 lysis buffer was added to the cell pellet and mixed thoroughly. The mixtures were rocked for 1 h at 4 °C and centrifuged at 12,000 × g for 15 min at 4 °C. Then the supernatant was transferred to new EP tubes. In total, 20 µL supernatant was extracted with 180 µL of acetonitrile (containing internal standard: 250 nM of RNC-Ctrl) and centrifuged at the same conditions described above. Take 75 μL of supernatant for liquid chromatography-mass spectrometry analysis.
The mass spectrometer was operated in positive SIM ion mode (fragmentor 120 V; cycle time 0.6 s/cycle; Agilent Technologies 6130 Quadrupole LC/MS).

BTK = BTK (Homo sapiens, UniProt Q06187); test: BTK degradation in MOLM-14 cells (western blot); assay type: cell-based; design: endogenous in cells; host or cells: MOLM-14; settings: Figure 2b, duplicates
BTK, sequence (Q06187 whole entry): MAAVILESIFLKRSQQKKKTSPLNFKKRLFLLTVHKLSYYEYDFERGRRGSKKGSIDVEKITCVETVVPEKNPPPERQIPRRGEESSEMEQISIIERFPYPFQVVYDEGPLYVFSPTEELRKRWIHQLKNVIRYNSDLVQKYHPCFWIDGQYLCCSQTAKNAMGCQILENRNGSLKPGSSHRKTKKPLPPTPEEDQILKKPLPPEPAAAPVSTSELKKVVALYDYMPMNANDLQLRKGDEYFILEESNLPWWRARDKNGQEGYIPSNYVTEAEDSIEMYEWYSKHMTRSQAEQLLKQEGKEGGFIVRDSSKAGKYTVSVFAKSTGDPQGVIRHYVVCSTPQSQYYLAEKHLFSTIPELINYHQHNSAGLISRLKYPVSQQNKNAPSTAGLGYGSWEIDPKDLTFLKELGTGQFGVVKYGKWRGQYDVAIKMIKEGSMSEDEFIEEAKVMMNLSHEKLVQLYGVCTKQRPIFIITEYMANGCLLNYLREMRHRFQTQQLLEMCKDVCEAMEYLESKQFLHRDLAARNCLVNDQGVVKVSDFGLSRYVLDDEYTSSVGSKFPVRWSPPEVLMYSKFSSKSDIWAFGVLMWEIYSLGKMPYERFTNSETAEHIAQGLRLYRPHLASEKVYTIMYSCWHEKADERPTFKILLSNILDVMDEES

T1 sequence (Q06187 whole entry, the tested form may be a part): as the sequence (Q06187 whole entry) above
truncated Cereblon protein, sequence (Q96SW2 318-426): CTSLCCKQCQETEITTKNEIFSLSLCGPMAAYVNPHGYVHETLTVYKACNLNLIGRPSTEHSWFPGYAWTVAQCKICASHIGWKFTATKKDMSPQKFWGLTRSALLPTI

CN(CCCNC(=O)CNc1cccc2c1C(=O)N(C1CCC(=O)NC1=O)C2=O)CCCC(=O)N1CCCC(n2nc(-c3ccc(Oc4ccccc4)cc3)c3c(N)ncnc32)C1 (stereo not drawn) [RNC-1]
Signal (full-length BTK protein; BTK_+DTT, compound concentration 0.0457 nM): 1.67E-05 and 2.04E-05
Signal (full-length BTK protein; BTK_+DTT, compound concentration 0.137 nM): 2.07E-05
Signal (full-length BTK protein; BTK_+DTT, compound concentration 0.412 nM): 1.78E-05 and 1.97E-05
Signal (full-length BTK protein; BTK_+DTT, compound concentration 1.23 nM): 1.66E-05 and 1.94E-05
Signal (full-length BTK protein; BTK_+DTT, compound concentration 3.7 nM): 9.43E-06 and 1.17E-05
Signal (full-length BTK protein; BTK_+DTT, compound concentration 11.1 nM): 5.40E-06 and 5.82E-06
Signal (full-length BTK protein; BTK_+DTT, compound concentration 33.3 nM): 1.59E-06 and 1.81E-06
Signal (full-length BTK protein; BTK_+DTT, compound concentration 100 nM): 4.37E-07 and 5.02E-07
Signal (full-length BTK protein; BTK_+DTT, compound concentration 300 nM): 2.01E-07 and 2.30E-07
Signal (full-length BTK protein; BTK_+DTT, compound concentration 900 nM): 1.47E-07 and 2.72E-07
Signal (full-length BTK protein; BTK_+DTT, compound concentration 2700 nM): 1.45E-07 and 2.02E-07
Signal (full-length BTK protein; BTK_-DTT, compound concentration 0.137 nM): 2.06E-05
Kd (full-length BTK protein; full-length BTK, standard assay buffer in the presence of DTT (6 mM) (DiMe compounds: BTK_+DTT per Supplementary Data 1), duplicates): 4.7 nM
Fluorescence Intensity ([1]; CRBN 0 μM): 2486.8 and 2886.8 and 2579.8
Fluorescence Intensity ([1]; CRBN 0.734375 μM): 2242.8 and 2235.8 and 2132.8
Fluorescence Intensity ([1]; CRBN 1.46875 μM): 2244.8 and 1962.8 and 1899.8
Fluorescence Intensity ([1]; CRBN 2.9375 μM): 1778.8 and 1742.8 and 1730.8
Fluorescence Intensity ([1]; CRBN 5.875 μM): 1389.8 and 1303.8 and 1288.8
Fluorescence Intensity ([1]; CRBN 11.75 μM): 1034.8 and 1140.8 and 1274.8
Fluorescence Intensity ([1]; CRBN 23.5 μM): 1293.8 and 1294.8 and 1588.8
Kd ([1]; truncated Cereblon protein, fluorescence quenching, triplicates, read-out: Kd): 1800 nM
Intracellular concentration: Concentration of compound, AVE (MOLM-14 cells; 5 min): 0.0812 µM
intracellular amount, AVE (MOLM-14 cells; 5 min): 0.0325 nmol
intracellular amount (MOLM-14 cells; 5 min, single replicates): 0.0283 nmol and 0.0378 nmol and 0.0313 nmol
Intracellular concentration: Concentration of compound (MOLM-14 cells; 5 min, single replicates): 0.0707 µM and 0.0946 µM and 0.0782 µM
Intracellular concentration: Concentration of compound, AVE (MOLM-14 cells; 15 min): 0.0738 µM
intracellular amount, AVE (MOLM-14 cells; 15 min): 0.0295 nmol
intracellular amount (MOLM-14 cells; 15 min, single replicates): 0.0286 nmol and 0.0292 nmol and 0.0308 nmol
Intracellular concentration: Concentration of compound (MOLM-14 cells; 15 min, single replicates): 0.0714 µM and 0.0730 µM and 0.0769 µM
Intracellular concentration: Concentration of compound, AVE (MOLM-14 cells; 30 min): 0.0681 µM
intracellular amount, AVE (MOLM-14 cells; 30 min): 0.0272 nmol
intracellular amount (MOLM-14 cells; 30 min, single replicates): 0.0255 nmol and 0.0275 nmol and 0.0287 nmol
Intracellular concentration: Concentration of compound (MOLM-14 cells; 30 min, single replicates): 0.0636 µM and 0.0688 µM and 0.0717 µM
Intracellular concentration: Concentration of compound, AVE (MOLM-14 cells; 60 min): 0.0458 µM
intracellular amount, AVE (MOLM-14 cells; 60 min): 0.0183 nmol
intracellular amount (MOLM-14 cells; 60 min, single replicates): 0.0183 nmol and 0.0188 nmol and 0.0180 nmol
Intracellular concentration: Concentration of compound (MOLM-14 cells; 60 min, single replicates): 0.0457 µM and 0.0469 µM and 0.0450 µM
Intracellular concentration: Concentration of compound, AVE (MOLM-14 cells; 90 min): 0.0470 µM
intracellular amount, AVE (MOLM-14 cells; 90 min): 0.0188 nmol
intracellular amount (MOLM-14 cells; 90 min, single replicates): 0.0195 nmol and 0.0181 nmol and 0.0187 nmol
Intracellular concentration: Concentration of compound (MOLM-14 cells; 90 min, single replicates): 0.0488 µM and 0.0453 µM and 0.0468 µM
Intracellular concentration: Concentration of compound, AVE (MOLM-14 cells; 120 min): 0.0445 µM
intracellular amount, AVE (MOLM-14 cells; 120 min): 0.0178 nmol
intracellular amount (MOLM-14 cells; 120 min, single replicates): 0.0166 nmol and 0.0169 nmol and 0.0199 nmol
Intracellular concentration: Concentration of compound (MOLM-14 cells; 120 min, single replicates): 0.0414 µM and 0.0423 µM and 0.0498 µM
Intracellular concentration: Concentration of compound, AVE (MOLM-14 cells; 240 min): 0.0399 µM
intracellular amount, AVE (MOLM-14 cells; 240 min): 0.0160 nmol
intracellular amount (MOLM-14 cells; 240 min, single replicates): 0.0161 nmol and 0.0163 nmol and 0.0155 nmol
Intracellular concentration: Concentration of compound (MOLM-14 cells; 240 min, single replicates): 0.0402 µM and 0.0408 µM and 0.0387 µM
Cellular concentration (MOLM-14 cells; 5 min, Mean): 0.0325 nmol/million cells
Cellular concentration (MOLM-14 cells; 5 min, single replicates, MOLM-14, 200 nM): 0.0313 nmol/million cells and 0.0283 nmol/million cells and 0.0378 nmol/million cells
Cellular concentration (MOLM-14 cells; 15 min, Mean): 0.0295 nmol/million cells
Cellular concentration (MOLM-14 cells; 15 min, single replicates, MOLM-14, 200 nM): 0.0308 nmol/million cells and 0.0286 nmol/million cells and 0.0292 nmol/million cells
Cellular concentration (MOLM-14 cells; 30 min, Mean): 0.0272 nmol/million cells
Cellular concentration (MOLM-14 cells; 30 min, single replicates, MOLM-14, 200 nM): 0.0287 nmol/million cells and 0.0255 nmol/million cells and 0.0275 nmol/million cells
Cellular concentration (MOLM-14 cells; 60 min, Mean): 0.0183 nmol/million cells
Cellular concentration (MOLM-14 cells; 60 min, single replicates, MOLM-14, 200 nM): 0.0180 nmol/million cells and 0.018 nmol/million cells and 0.0183 nmol/million cells and 0.0188 nmol/million cells
Cellular concentration (MOLM-14 cells; 90 min, Mean): 0.0188 nmol/million cells
Cellular concentration (MOLM-14 cells; 90 min, single replicates, MOLM-14, 200 nM): 0.0187 nmol/million cells and 0.0195 nmol/million cells and 0.0181 nmol/million cells
Cellular concentration (MOLM-14 cells; 120 min, Mean): 0.0178 nmol/million cells
Cellular concentration (MOLM-14 cells; 120 min, single replicates, MOLM-14, 200 nM): 0.0199 nmol/million cells and 0.0166 nmol/million cells and 0.0169 nmol/million cells
Cellular concentration (MOLM-14 cells; 240 min, Mean): 0.0160 nmol/million cells and 0.016 nmol/million cells
Cellular concentration (MOLM-14 cells; 240 min, single replicates, MOLM-14, 200 nM): 0.0155 nmol/million cells and 0.0161 nmol/million cells and 0.0163 nmol/million cells
Quantification anti-BTK / anti-β-actin (BTK level vs DMSO) (BTK; 8 nM): 97.1575 and 95.3789
Quantification anti-BTK / anti-β-actin (BTK level vs DMSO) (BTK; 40 nM): 69.0679 and 73.2452
Quantification anti-BTK / anti-β-actin (BTK level vs DMSO) (BTK; 200 nM): 33.5661 and 27.9942
